Results as given in ChEMBL document CHEMBL3244037, “6-Aryl-4H-s-triazolo[4,3-a][1,4]benzodiazepines. Influence of 1-substitution on pharmacological activity” (J Med Chem, 1979).

Legend:
[1] = system: Mus musculus; assay: Potentiation of yohimbine toxicity in ip dosed aggregated albino CF1 mouse; assay type: organism-based
[2] = system: Mus musculus; assay: Anticonvulsant activity in ip dosed albino CF1 mouse assessed as inhibition of bicucullin-induced tonic extensor convulsions; assay type: functional
[3] = system: Mus musculus; assay: Reduction of hypoxic stress in ip dosed albino CF1 mouse assessed as prolongation of hypoxic survival time; assay type: functional
[4] = system: Mus musculus; assay: […] activity in ip dosed albino CF1 mouse assessed as potentiation of gamma-butyrolactone-induced sleep; assay type: functional
[5] = system: Mus musculus; assay: Hypothermic activity in ip dosed albino CF1 mouse assessed as effect on body temperature measured after 45 mins; assay type: functional; details: 0.75 h
[6] = system: Mus musculus; assay: Inhibition of apomorphine-induced cage climbing in ip dosed albino CF1 mouse compound administered prior to challenge measured for 5 mins after 5 mins of challenge; assay type: functional
[7] = system: Mus musculus; assay: Inhibition of amphetamine aggregation toxicity in ip dosed albino CF1 mouse compound administered 1 hr prior to challenge measured after 2 hrs; assay type: functional
[8] = system: Mus musculus; assay: Anticonvulsant activity in ip dosed albino CF1 mouse assessed as protection against pentylenetetrazole-induced clonic convulsions; assay type: functional
[9] = system: Mus musculus; assay: Potentiation of apomorphine-induced gnawing in ip dosed albino CF1 mouse; assay type: organism-based
[10] = system: Mus musculus; assay: Inhibition of oxotremorine-induced hypothermia in ip dosed albino CF1 mouse; assay type: functional

Structure (SMILES)	ED50 [1]	ED50 [2]	ED50 [3]	ED50 [4]	ED50 [5]	ED50 [6]	ED50 [7]	ED50 [8]	ED50 [9]	ED50 [10]
FC(F)(F)c1nnc2n1-c1ccc(Cl)cc1C(c1ccccc1)=NC2	> 50 mg/kg	> 50 mg/kg	> 50 mg/kg	> 50 mg/kg	> 50 mg/kg	> 50 mg/kg	> 50 mg/kg	20 mg/kg	> 50 mg/kg	> 50 mg/kg
COC(=O)Cc1nnc2n1-c1ccc(Cl)cc1C(c1ccccc1)=NC2	> 50 mg/kg	> 50 mg/kg	> 50 mg/kg	> 50 mg/kg	> 50 mg/kg	> 50 mg/kg	> 50 mg/kg	> 50 mg/kg	> 50 mg/kg	> 50 mg/kg
Clc1ccccc1C1=NCc2nncn2-c2ccccc21	> 50 mg/kg	42 mg/kg	> 50 mg/kg	12.5 mg/kg	> 50 mg/kg	> 50 mg/kg	> 50 mg/kg	> 50 mg/kg	> 50 mg/kg	> 50 mg/kg
Clc1ccc2c(c1)C(c1ccccc1)=NCc1nnc(N3CCN(c4ccccc4)CC3)n1-2	> 50 mg/kg	> 50 mg/kg	> 50 mg/kg	> 50 mg/kg	> 50 mg/kg	> 50 mg/kg	> 50 mg/kg	> 50 mg/kg	> 50 mg/kg	> 50 mg/kg
OCCN1CCN(c2nnc3n2-c2ccc(Cl)cc2C(c2ccccc2)=NC3)CC1	> 50 mg/kg	8.8 mg/kg	> 50 mg/kg	1.6 mg/kg	> 50 mg/kg	> 50 mg/kg	> 50 mg/kg	42 mg/kg	25 mg/kg	> 50 mg/kg
Clc1ccc2c(c1)C(c1ccccc1)=NCc1nnc(N3CCNCC3)n1-2	> 50 mg/kg	> 50 mg/kg	> 50 mg/kg	> 50 mg/kg	> 50 mg/kg	> 50 mg/kg	> 50 mg/kg	> 50 mg/kg	> 50 mg/kg	34 mg/kg
CN(C)CCN(C)c1nnc2n1-c1ccc(Cl)cc1C(c1ccccc1)=NC2	> 50 mg/kg	42 mg/kg	> 50 mg/kg	12.5 mg/kg	40 mg/kg	> 50 mg/kg	> 50 mg/kg	30 mg/kg	> 50 mg/kg	> 50 mg/kg
CN1CCN(c2nnc3n2-c2ccccc2C(c2ccccc2)=NC3)CC1	> 50 mg/kg	> 50 mg/kg	> 50 mg/kg	> 50 mg/kg	12.5 mg/kg	25 mg/kg	> 50 mg/kg	14.9 mg/kg	> 50 mg/kg	35.4 mg/kg
Cc1nnc2n1-c1ccc(Cl)cc1C(c1ccccc1)=NC2 [ALPRAZOLAM]	> 50 mg/kg	0.2 mg/kg	0.2 mg/kg	0.08 mg/kg	> 50 mg/kg	> 50 mg/kg	> 50 mg/kg	0.1 mg/kg	> 50 mg/kg	> 50 mg/kg
CN1C(=O)CN=C(c2ccccc2)c2cc(Cl)ccc21 [DIAZEPAM]	> 50 mg/kg	2.6 mg/kg	0.2 mg/kg	0.035 mg/kg	14.9 mg/kg	> 50 mg/kg	> 50 mg/kg	0.1 mg/kg	> 50 mg/kg	> 50 mg/kg
